Measured values: US6559161B1, “Cytotoxic pyrido[2,3,4-ki]acridine derivatives, their preparation and their therapeutic use” (Universidad de Barcelona, priority 1999, dated 2003)
Like-named read-outs stand apart in the source and are kept apart here.

Experiments:
[1] = system: P-388D1 (ATCC CCL-46, lymphoid neoplasm from DBA/2 mouse); test: cytotoxicity, growth inhibition of P-388D1 cells in culture; format: cell-based; conditions: approximate IC50, three days of incubation at 37° C., growth vs control wells
Source text: (§1) The antitumour activity of the compounds of the present invention has been detected in vitro by culturing the tumour cells following the methodology described in Bergeron et al (1984), and by Schroeder et al (1981). Activity against different tumours as mouse lymphoma, human NSC lung carcinoma, human melanoma and human colon carcinoma has been observed.
(§2) Biological activity: cells were maintained in logarithmic phase of growth in Eagle's Minimum Essential Medium, with Earle's Balanced Salts, with 2.0 mM L-glutamine, with non-essential amino acids, without sodium bicarbonate (EMEM/neaa); supplemented with 10% Fetal Calf Serium (FCS), 10^−2 M sodium bicarbonate and 0.1 g/l penicillin-G+streptomycin sulfate.
(§3) The tumour cell lines employed have been P-388D1 (ATCC CCL-46, suspension culture of a lymphoid neoplasm from DBA/2 mouse), A549 (ATCC CCL-185, monolayer culture of a human lung carcinoma), HT-29 (ATCC HTB-38, monolayer culture of a human colon carcinoma) and SK-MEL-28 (ATCC HTB-72, monolayer culture of a human melanoma).
P-388D1 cells were seeded into 16 mm wells at 1×10^4 cells per well in 1 ml aliquots of MEM 5FCS containing the indicated concentration of drug. A separate set of cultures without drug was seeded as control growth to ensure that cells remained in expotential phase of growth. All determinations were carried out in duplicate. After three days of incubation at 37° C., 10% CO2 in a 98% humid atmosphere, an approximate IC50 was determined by comparing the growth in wells with drug to the growth in wells control.

[2] = system: A549 (ATCC CCL-185, human lung carcinoma); test: cytotoxicity, growth inhibition of A549 cells, Crystal Violet staining; format: cell-based; conditions: approximate IC50, three days of incubation at 37° C., read-out: IC50 (μM) A549 ATCC-CCL-L-185
Source text: as §1, §2, §3
(§4) A549, HT-29 and SK-MEL-28 were seeded into 16 mm wells at 2×10^4 cells per well in 1 ml aliquots of MEM 10FCS containing the indicated concentration of drug. A separate set of cultures without drug and was seeded as control growth to ensure that cells remained in exponential phase of growth. All determinations were carried out in duplicate. After three days of incubation at 37° C., 10% CO2 in a 98% humid atmosphere, the wells were stained with 0.1% Crystal Violet. An approximate IC50 was determined by comparing the growth in wells with drug to the growth in wells control.

[3] = system: HT-29 (ATCC HTB-38, human colon carcinoma); test: cytotoxicity, growth inhibition of HT-29 cells, Crystal Violet staining; format: cell-based; conditions: approximate IC50, three days of incubation at 37° C.
Source text: as §1, §2, §3, §4

[4] = system: SK-MEL-28 (ATCC HTB-72, human melanoma); test: cytotoxicity, growth inhibition of SK-MEL-28 cells, Crystal Violet staining; format: cell-based; conditions: approximate IC50, three days of incubation at 37° C.
Source text: as §1, §2, §3, §4

Structure (SMILES) | IC50 ([1]; Mus musculus, P388D1, 72 h) [µM] | IC50 ([2]; Homo sapiens, A549, 72 h) [µM] | IC50 ([3]; Homo sapiens, HT-29, 72 h) [µM] | IC50 ([4]; Homo sapiens, SK-MEL-28, 72 h) [µM] | melting point [°C] | IC50 [1] [µM] | IC50 [2] [µM] | IC50 [3] [µM] | IC50 [4] [µM]
COc1cc(NC(C)=O)c2c3c(c4ccccc4nc13)C=CN2 [Example 4, 4-Acetylamino-6-methoxy-3H-pyrido[2,3,4-kl]acridine] | 1.64 | 0.03 | 1.64 | 0.03 | 128 to 132 |  |  |  | 
COc1ccc2c3c(c4ccccc4nc13)C=CN2 [Example 1, 3H-6-Methoxypyrido[2,3,4-kl]acridine] |  |  |  |  |  | 0.5 | 0.05 | 0.5 | 0.05
COc1cc([N+](=O)[O-])c2c3c(c4ccccc4nc13)C=CN2 [Example 3, 6-Methoxy-4-nitro-3H-pyrido[2,3,4-kl]acridine] | 0.34 | 0.03 | 0.34 | 0.03 | 220 to 223 |  |  |  | 
